Consider four compounds from patent US9675609B2 (priority 2015, dated 2017).

Each structure is given as a SMILES string. Like-named read-outs stand apart in the source and are kept apart here.

The test system of series [1] is human tumor xenografts. The note with it: human tumor xenografts in mice; Pantazis et al.; cited from earlier work. A general note: In xenograft studies the graft and the host belong to different species.
Series [2] can be described thus: PK absorption of CZ48 in dogs. It counts as in vivo. The note with it: Dog, 400 mg/kg based on API content. The text has this:
Tmax refers to time to reach Cmax.

Series [3] has as its system human xenografts. Briefly: Raw CZ48 powders in cottonseed oil against 29 human xenografts in nude mice. In kind it is in vivo. The note with it: cancerous mice.
Text: (§1) Raw or native CZ48 powders have been intensively tested against human xenografts grown in nude mice. […] Cmax refers to the peak plasma concentration of the drug after administration.
The format of series [4] is physicochemical. The following applies: PSD of raw powders.
Series [5] deals with human HT29-colon tumor. The following applies: nude mice; Cao et al. Cancer Research 2009; cited from earlier work.
Series [6] in a line: PK studies of raw CZ48 cottonseed oil suspension in mice. The following applies: dose 100 mg/kg or higher.
Text: as §1
The conditions of series [7]: Wall et al. 1969; Giovanella et al. 1991; cited from earlier work.
[8] abbreviates: analyte in blood, source CZ48 composite particles equivalent to 400 mg/kg API, single dose, female healthy mice, CPT is the metabolite.

As to `CC[C@@]1(O)C(=O)OCc2c1cc1n(c2=O)Cc2cc3c([N+](=O)[O-])cccc3nc2-1` [9NC, 9-nitrocamptothecin], in series [1], the “times more potent than CPT” value is 2-3 times.

As usually defined, the Tmax is the time at which the peak concentration occurs. Usually Cmax stands for the highest concentration seen after dosing. Regarding `CCC(=O)O[C@]1(CC)C(=O)OCc2c1cc1n(c2=O)Cc2cc3ccccc3nc2-1` [CZ48, camptothecin-20-O-propionate hydrate], the time of peak concentration (Tmax) (Mouse, 400 mg/kg based on API content) was 60 min. Further, the Tmax under setting [8] amounted to 30 min. Moreover, in series [2], the AUC0-24 came out at 38.7 ng·h/mL, the concentration peaked (Cmax) at 3.4 ng/mL and the Tmax came out at 240 min. The “Cmax minimum requirement for a positive effect” value in series [3] is 100 ng/mL. Besides, in series [4], the “D[4,3]” value worked out at 7.612 μm, the “d(0.1)” value was 2.612 μm, the “d(0.5)” value is 6.220 μm and the “d(0.9)” value was determined as 14.556 μm. For the same compound, the “dose needed to achieve the same result (good activity against HT29-colon tumor)” value in series [5] was 1000 mg/kg. For the same compound, in series [6], the Cmax result is on record as “greater than 100 ng/ml”.

As to `CC[C@@]1(O)C(=O)OCc2c1cc1n(c2=O)Cc2cc3ccccc3nc2-1` [CPT, 20(S)-camptothecin, reference compound], under setting [8], the AUC0-24 came to 51.7 ng·h/mL, the Cmax is 26.0 ng/mL and the time of peak concentration (Tmax) came out at 30 min.

For the compound `CC[C@@](O)(C(=O)[O-])c1cc2n(c(=O)c1CO)Cc1cc3ccccc3nc1-2.[Na+]` [sodium carboxylate salt], in series [7], the “potency relative to native camptothecin with closed lactone ring” value was 10%.
